Measurements reported in patent US20070021325A1, “Drug formulation containing a solubilizer for enhancing solubility, absorption, and permeability” (Mediplex Corporation, priority 2005, published 2007).

Test: Oral absorption of encapsulated DMSO-bound heparin-DOCA in monkeys (FIG. 5)
Type: in vivo
Settings: in buffer, 100 mg/kg (control)
Experimental: DMSO-bound heparin-DOCA prepared according to the method of Example 1 was encapsulated and then administered orally to monkeys at either 5 mg/kg or 10 mg/kg dosages. As a control, heparin in buffer was orally administered at 100 mg/kg.

## heparin
  absorption after oral administration: negligible
